Experimental data: patent US10973912B2, “Treatment for myopathy” (Children's Medical Center Corporation, priority 2015, dated 2021)

Legend:
[1] = test system: ryr1b homozygous mutant zebrafish; format: in vivo, zebrafish (Danio rerio)
Experimental: In two independent experiments, two pools of 20 larvae from heterozygous ryr1b matings were treated with DMSO or with one of three different concentrations of NIF (1.0-100.0 μg/mL) at 1 dpf and evaluated in terms of touch-evoked escape behaviors at 5 dpf (n=40). Following phenotypic scoring, all living embryos were genotyped using three-primer genomic PCR. Swimming scores for larvae genotype-confirmed as ryr1b homozygous mutants are shown as a percentage of the total number of living larvae in each dose category: 1=poor swimming; 2 or 3=moderate or wild-type swimming. NIF improved mobility of ryr1b mutants at a dose of 10 μg/mL. […] Phospho-Stat3 band intensities were normalized to β-Actin control bands and quantified in Image J (NIH).
FIGS. 12A-12C show a ketoprofen dose-response and proposed mechanistic link. […] FIG. 12B is a dose-response graph for ketoprofen (KETO). Two pools of 20 larvae from heterozygous ryr1b matings were treated with DMSO or four different concentrations of KETO (1.0-100.0 μg/mL) at 1 dpf and evaluated in terms of touch-evoked escape behaviors at 5 dpf (n=40). Following phenotypic scoring, all living embryos were genotyped using three-primer genomic PCR. Swimming scores for larvae genotype-confirmed as ryr1b homozygous mutants are shown as a percentage of the total number of living larvae in each dose category: 1=poor swimming, 2 or 3=moderate or wild-type swimming. […] Phosphorylated STATs form dimers, translocate to nuclei, and from there are associated with various transcriptional activities. Dubowitz, V. and Sewry, C. (2006) Muscle Biopsy: A Practical Approach. Elsevier-Health Sciences Division.
The relatively relaxed zebrafish was initially identified due to a spontaneous autosomal recessive mutation within the ryr1b gene^30. Specifically, ryr1b mutants carry a 4046 base pair (bp) DNA insertion in the intron between exons 48 and 49 that includes an additional 32 bp sequence found in mutant cDNA (FIG. 3)^30. Genotypes of individual embryos were examined using three-primer genomic PCR, with an expected wild-type band of 1,668 bp and a mutant band of 653 bp. Primer sequences were as follows: ryr1b #1 (forward): 5′-[…]-3′ (SEQ ID NO: 4); ryr1b #2 (reverse): 5′-[…]-3′ (SEQ ID NO: 5); and ryr1b #3 (reverse): 5′-[…]-3′ (SEQ ID NO: 6).
The primary and secondary screens only tested chemical pools and individual compounds at a single concentration (2.0 μg/mL). Although beneficial in a high-throughput context, this approach can result in false positives and false negatives. […] For analysis, pools of 20 larvae obtained from heterozygous ryr1b matings were treated in duplicate with DMSO or with one of three different concentrations of NIF (1.0-100.0 μg/mL) at 1 dpf and scored for touch-evoked escape behaviors at 5 dpf. All scored larvae were then genotyped using three-primer genomic PCR. […] Next, hit expansion was used to verify JAK-STAT as a potential molecular pathway involved in ryr1b mutant pathology. […] A higher effective dose for 5,15-DPP was consistent with the IC50 measurements reported for each compound^40,41.

[2] = test system: ryr1b homozygous mutant zebrafish; test: Secondary screen of individual chemicals in ryr1b zebrafish (vitality: survival and touch-evoked escape behavior); format: in vivo, zebrafish (Danio rerio); design: key: vitality score, theoretical range 0–60; DMSO controls expected ~50; conditions: 2.0 μg/mL from 1 dpf, scored at 5 dpf; average of two replicates of 20 larvae from heterozygous ryr1b matings; score=(#Dead*0)+(#ryr1b*1)+(#Moderate*2)+(#Wild-type*3), max 60, expected 50 in DMSO controls
Experimental: Each scored compound represents an average of two replicates, consisting of 20 larvae from heterozygous ryr1b matings (n=40). Larvae obtained from wild-type AB matings served as positive controls. […] Significance was determined by pairwise comparisons between control and experimental pools using a Student's t-test. Vitality score=(#Dead*0)+(#ryr1b*1)+(#Moderate*2)+(#Wild-type*3). Standard deviations shown for positive and negative controls were calculated based on results from 5 and 21 independent experiments, respectively.
Primary screen. For the primary screen, twenty embryos (1 dpf) resulting from a mating of heterozygous ryr1b zebrafish were manually sorted into 48-well plates containing 250 μL embryo 1×E3 medium (5.0 mM NaCl, 0.17 mM KCl, 0.33 mM CaCl2*2H2O, 0.33 mM MgSO4*7H2O) and four pooled chemicals from the Prestwick2 chemical library. Each chemical pool was assayed in duplicate using embryos from two independent clutches, for a total of 24 distinct pools tested per plate (FIG. 1). The chemicals were dissolved to a final concentration of 2.0 μg/mL and 0.4% DMSO, which is similar to concentrations other groups have used in zebrafish studies^37,38. As a negative control, twenty embryos from each clutch were cultured without chemicals in vehicle only (0.4% DMSO) (FIG. 1). Larvae obtained from wild-type (Oregon AB) matings served as positive controls in separate plates. All plates containing embryos were incubated at 28.5° C. and maintained as initially treated for 5 days. Dead embryos were removed from wells when observed during the first 4 days of the study. On day 5, dead or “motion-dead” larvae were scored alongside living larvae.
At 5 dpf, pools were scored for their ability to improve the survival and touch-evoked escape behaviors of ryr1b homozygous mutants using the following numeric scoring system: 3=4-6 cm, fast (wild-type); 2=2-4 cm (moderate); 1=<2 cm, slow (ryr1b); 0=no movement (dead) (FIG. 2A). Survival, swimming, and combined endpoints of the primary screen were then examined for their ability to distinguish positive from negative controls. […] Taking into account both experimental replicates (n=40), hit pools contained at least 37 alive larvae on day 5 (i.e., 70-100% of the larvae assumed to be ryr1b mutants survived the duration of the study), and were selected for analysis in a secondary screen.
In the secondary screen, hit pools were separated and tested as 68 individual chemicals. Screening was performed precisely as described for the primary screen with few modifications. Embryos were raised in wells containing 750 μL 1×E3 medium, as opposed to 250 μL, although the final concentration of each compound was maintained at 2.0 μg/mL. […] Vitality scores, weighting survival and swimming ratios appropriately, were calculated as (#Dead*0)+(#ryr1b*1)+(#Moderate*2)+(#Wild-type*3). Theoretical maximum and minimum scores were 60 and 0, respectively, with an expected score of 50 in DMSO-treated controls. Secondary screen hits (P<0.05), considered “candidate” compounds, are currently being examined in dose-response and long-term studies.
The second tier of the chemical screen was performed two years following the primary screen, with a fully established ryr1b^+/− line. Healthier clutches tended to result in better survival of homozygous ryr1b mutants. Median mutant life spans more accurately adhered to the 7-15 day estimate previously published^30. Therefore, in the secondary screen, hit chemical pools were separated into individual compounds and each of 68 total compounds was examined for its ability to positively influence both ryr1b survival and motor function (referred to in combination as “vitality”). […] These included two anti-inflammatory agents (sulfasalazine and ketoprofen), two monoamine oxidase inhibitors (pargyline hydrochloride and tranylcypromine hydrochloride), and two ion channel modulators (metolazone and nimodipine).

**Q.** What does the source list for `O=C(N/N=C/c1ccc([N+](=O)[O-])o1)c1ccc(O)cc1` [Nifuroxazide]?
**A.** dose that improved mobility of ryr1b mutants / optimal activity ([1]; treated at 1 dpf, touch-evoked escape behaviors at 5 dpf, tested 1.0-100.0 μg/mL): 10 µg/mL; touch-evoked escape behaviors / mobility of ryr1b mutants ([1]; treated from 1 dpf, scored and genotyped at 5 dpf): ryr1b mutants were among larvae that exhibited wild-type touch-evoked escape behaviors; Vitality Score [2]: 52.0
